Reference: patent publication US10633354B2, “Substituted tricyclic heterocyclic compounds” (BRISTOL-MYERS SQUIBB COMPANY, priority 2016, dated 2020)

Key:
[1] = Parent and phosphate concentrations in the BLR assay; details: rat, in vivo, po, Lewis rats dosed orally
circulating lymphocytes = assay: Blood Lymphocyte Reduction (BLR) assay in rodent; format: in vivo; details: Lewis rats dosed orally; for BL (×10^3/mm^3): n=2; for Lymp. Red.: vs vehicle group
Procedure: (§1) Blood Lymphocyte Reduction (BLR) Assay in Rodent:
Lewis rats were dosed orally with vehicle alone (polyethylene glycol 300, “PEG300”) or with test compounds. Compounds were dosed as a solution or suspension in the vehicle, adjusted to reflect the free amount of test article in the event that salt forms are utilized. […] The results were measured as a reduction in the percentage of circulating lymphocytes as compared to the vehicle treated group at the time of measurement. The results represent the average results of all animals within each treatment group (n=2).

[2] = Parent and phosphate concentrations in the BLR assay; details: rat, in vivo, po, Lewis rats dosed orally; remark: listed apart in the source
Procedure: as §1
Lewis rats were dosed orally with vehicle alone (polyethylene glycol 300, “PEG300”) or with test compounds. Compounds were dosed as a solution or suspension in the vehicle, adjusted to reflect the free amount of test article in the event that salt forms are utilized. Blood was drawn at 24 hr and blood lymphocyte counts were determined on an ADVIA 120 Hematology Analyzer (Siemens Healthcare Diagnostics). The results were measured as a reduction in the percentage of circulating lymphocytes as compared to the vehicle treated group at the time of measurement. The results represent the average results of all animals within each treatment group (n=2).

Compound | concentration at 4 h [1] | concentration at 24 h [2] | BL (×10^3/mm^3) (circulating lymphocytes; 4 Hours) | Lymp. Red. (circulating lymphocytes; 4 Hours) | BL (×10^3/mm^3) (circulating lymphocytes; 24 Hours) | Lymp. Red. (circulating lymphocytes; 24 Hours)
CCCCCCCc1nc2c(s1)-c1ccc([C@H]3CC[C@](N)(CO)C3)cc1CC2 [Example 1, ((1R,3S)-1-amino-3-(2-heptyl-4,5-dihydronaphtho[2,1-d]thiazol-7-yl)cyclopentyl) methanol] | 66 nM | 111 nM | 5.7 ×10^3/mm^3 | 40% | 1.8 ×10^3/mm^3 | 77%
CCCCOCCOc1nc2c(s1)-c1ccc([C@H]3CC[C@](N)(CO)C3)cc1CC2 [Example 7, ((1R,3S)-1-amino-3-(2-(2-butoxyethoxy)-4,5-dihydronaphtho[2,1-d]thiazol-7-yl)cyclopentyl)methanol] | 1 nM | 142 nM | 1.9 ×10^3/mm^3 | 79% | 1.2 ×10^3/mm^3 | 87%
CCCCOc1nc2c(s1)-c1ccc([C@H]3CC[C@](N)(CO)C3)cc1CC2 [Example 8, ((1R,3S)-1-amino-3-(2-butoxy-4,5-dihydronaphtho[2,1-d]thiazol-7-yl)cyclopentyl)methanol] | 35 nM | 7 nM | 2.5 ×10^3/mm^3 | 74% | 2.4 ×10^3/mm^3 | 68%
CCCCCCOc1nc2c(s1)-c1ccc([C@H]3CC[C@](N)(CO)C3)cc1CC2 [Example 9, ((1R,3S)-1-amino-3-(2-(hexyloxy)-4,5-dihydronaphtho[2,1-d]thiazol-7-yl)cyclopentyl) methanol] | 72 nM | 31 nM | 2.8 ×10^3/mm^3 | 66% | 1.4 ×10^3/mm^3 | 82%
CCCCCCOc1nc2ccc3cc([C@H]4CC[C@](N)(CO)C4)ccc3c2s1 [Example 13, ((1R,3S)-1-amino-3-(2-(hexyloxy)naphtho[2,1-d]thiazol-7-yl)cyclopentyl)methanol] | 65 nM | 78 nM | 2.5 ×10^3/mm^3 | 73% | 1.4 ×10^3/mm^3 | 83%
CCCCSc1nc2ccc3cc([C@H]4CC[C@](N)(CO)C4)ccc3c2s1 [Example 14, ((1R,3S)-1-amino-3-(2-(butylthio)naphtho[2,1-d]thiazol-7-yl)cyclopentyl)methanol] | 15 nM | 8 nM | 2.6 ×10^3/mm^3 | 69% | 2.1 ×10^3/mm^3 | 75%
CCCCCOc1nc2ccc3cc([C@H]4CC[C@](N)(CO)C4)ccc3c2s1 [Example 15, ((1R,3S)-1-amino-3-(2-(pentyloxy)naphtho[2,1-d]thiazol-7-yl)cyclopentyl)methanol] | 31 nM | 17 nM | 1.7 ×10^3/mm^3 | 80% | 1.8 ×10^3/mm^3 | 80%
CCCCOc1nc2ccc3cc([C@H]4CC[C@](N)(CO)C4)ccc3c2s1 [Example 16, ((1R,3S)-1-amino-3-(2-butoxynaphtho[2,1-d]thiazol-7-yl)cyclopentyl)methanol] | 28 nM | 21 nM | 2.9 ×10^3/mm^3 | 65% | 1.9 ×10^3/mm^3 | 77%
Cc1ccc(-c2nc3c(s2)-c2ccc([C@H]4CC[C@](N)(CO)C4)cc2CC3)cc1 [Example 19, ((1R,3S)-1-amino-3-(2-(p-tolyl)-4,5-dihydronaphtho[2,1-d]thiazol-7-yl)cyclopentyl)methanol] | 48 nM | 37 nM | 7.5 ×10^3/mm^3 | 9% | 8.2 ×10^3/mm^3 | 2%
COc1cccc(-c2nc3c(s2)-c2ccc([C@H]4CC[C@](N)(CO)C4)cc2CC3)c1 [Example 20, ((1R,3S)-1-amino-3-(2-(3-methoxyphenyl)-4,5-dihydronaphtho[2,1-d]thiazol-7-yl)cyclopentyl)methanol] | 97 nM | 68 nM | 5.7 ×10^3/mm^3 | 31% | 3.1 ×10^3/mm^3 | 63%

More lines, main results first:

concentration at 4 h [1] | concentration at 24 h [2] | Compound | BL (×10^3/mm^3) (circulating lymphocytes; 4 Hours) | Lymp. Red. (circulating lymphocytes; 4 Hours) | BL (×10^3/mm^3) (circulating lymphocytes; 24 Hours) | Lymp. Red. (circulating lymphocytes; 24 Hours)
108 nM | < 19 nM | CCCc1nc2c(s1)-c1ccc([C@H]3CC[C@](N)(CO)C3)cc1CC2 [Example 2, ((1R,3S)-1-amino-3-(2-propyl-4,5-dihydronaphtho[2,1-d]thiazol-7-yl)cyclopentyl) methanol] | 4.9 ×10^3/mm^3 | 41% | 8.2 ×10^3/mm^3 | 0%
77 nM | 9 nM | CCCCCCc1nc2c(s1)-c1ccc([C@H]3CC[C@](N)(CO)C3)cc1CC2 [Example 5, ((1R,3S)-1-amino-3-(2-hexyl-4,5-dihydronaphtho[2,1-d]thiazol-7-yl)cyclopentyl)methanol] | 2.8 ×10^3/mm^3 | 66% | 4.5 ×10^3/mm^3 | 48%
109 nM | 66 nM | CCCCc1nc2c(s1)-c1ccc([C@H]3CC[C@](N)(CO)C3)cc1CC2 [Example 6, ((1R,3S)-1-amino-3-(2-butyl-4,5-dihydronaphtho[2,1-d]thiazol-7-yl)cyclopentyl)methanol] | 3.4 ×10^3/mm^3 | 59% | 1.5 ×10^3/mm^3 | 82%
9 nM | 1 nM | CCCCSc1nc2c(s1)-c1ccc([C@H]3CC[C@](N)(CO)C3)cc1CC2 [Example 10, ((1R,3S)-1-amino-3-(2-(butylthio)-4,5-dihydronaphtho[2,1-d]thiazol-7-yl)cyclopentyl)methanol] | 1.7 ×10^3/mm^3 | 82% | 4.1 ×10^3/mm^3 | 48%
87 nM | 16 nM | CCCCCSc1nc2c(s1)-c1ccc([C@H]3CC[C@](N)(CO)C3)cc1CC2 [Example 11, ((1R,3S)-1-amino-3-(2-(pentylthio)-4,5-dihydronaphtho[2,1-d]thiazol-7-yl)cyclopentyl) methanol] | 2.3 ×10^3/mm^3 | 72% | 2.1 ×10^3/mm^3 | 76%
81 nM | 29 nM | CCCCCOc1nc2c(s1)-c1ccc([C@H]3CC[C@](N)(CO)C3)cc1CC2 [Example 12, ((1R,3S)-1-amino-3-(2-(pentyloxy)-4,5-dihydronaphtho[2,1-d]thiazol-7-yl)cyclopentyl)methanol] | 2.8 ×10^3/mm^3 | 67% | 1.8 ×10^3/mm^3 | 80%
33 nM | 0 nM | CCCCNc1nc2c(s1)-c1ccc([C@H]3CC[C@](N)(CO)C3)cc1CC2 [Example 17, ((1R,3S)-1-amino-3-(2-(butylamino)-4,5-dihydronaphtho[2,1-d]thiazol-7-yl)cyclopentyl)methanol] | 5.8 ×10^3/mm^3 | 37% | 8.4 ×10^3/mm^3 | 0%
113 nM | 18 nM | CCCCN(C)c1nc2c(s1)-c1ccc([C@H]3CC[C@](N)(CO)C3)cc1CC2 [Example 18, ((1R,3S)-1-amino-3-(2-(butyl(methyl)amino)-4,5-dihydronaphtho[2,1-d]thiazol-7-yl)cyclopentyl)methanol] | 5.9 ×10^3/mm^3 | 30% | 6.4 ×10^3/mm^3 | 27%
